# From ChEMBL document CHEMBL1201862, “PubChem BioAssay data set” (2004)
#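 Five concentrations, 48 hours, 96-well plates. The concentration for 50% growth inhibition is given as GI50.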 The source made the active and inactive calls. No stated cut-off is given here; in the data, active = GI50 up to about 1.1 µM and inactive = higher.
# What was measured:
# Assay in all cases: NCI tumour cell line growth inhibition, 48 h
# SF-539 = tested on: SF-539
# NCI-H460 = tested on: NCI-H460
# OVCAR-8 = tested on: OVCAR-8
# ACHN = tested on: ACHN
# U-251 = tested on: U-251
# EKVX = tested on: EKVX
# MCF7 = tested on: MCF7
# UACC-257 = tested on: UACC-257
# HCT-15 = tested on: HCT-15
# HCC 2998 = tested on: HCC 2998
# UACC-62 = tested on: UACC-62
# COLO 205 = tested on: COLO 205
# SNB-75 = tested on: SNB-75
# A549 = tested on: A549
# K562 = tested on: K562
# OVCAR-5 = tested on: OVCAR-5
# SK-OV-3 = tested on: SK-OV-3
# CAKI-1 = tested on: CAKI-1
# HL-60 = tested on: HL-60
# SK-MEL-5 = tested on: SK-MEL-5
# HT-29 = tested on: HT-29
# SN12C = tested on: SN12C
# OVCAR-3 = tested on: OVCAR-3
# TK-10 = tested on: TK-10
# OVCAR-4 = tested on: OVCAR-4
# NCI-H522 = tested on: NCI-H522
# RXF 393 = tested on: RXF 393
# KM12 = tested on: KM12
# MDA-MB-231 = tested on: MDA-MB-231
# Malme-3M = tested on: Malme-3M
# PC-3 = tested on: PC-3
# LOX IMVI = tested on: LOX IMVI
# MOLT-4 = tested on: MOLT-4
# HOP-62 = tested on: HOP-62
# BT-549 = tested on: BT-549
# CCRF-CEM = tested on: CCRF-CEM
# SW-620 = tested on: SW-620
# NCI-H226 = tested on: NCI-H226
# SK-MEL-2 = tested on: SK-MEL-2
# Hs-578T = tested on: Hs-578T
# NCI/ADR-RES = tested on: NCI/ADR-RES
# T47D = tested on: T47D
# DU-145 = tested on: DU-145
# HOP-92 = tested on: HOP-92
# MDA-N = tested on: MDA-N
# A498 = tested on: A498
# SF-295 = tested on: SF-295
# SNB-19 = tested on: SNB-19
# SF-268 = tested on: SF-268
# M14 = tested on: M14
# HCT-116 = tested on: HCT-116
# MDA-MB-435 = tested on: MDA-MB-435
# UO-31 = tested on: UO-31
# NCI-H23 = tested on: NCI-H23
# 786-0 = tested on: 786-0
# SK-MEL-28 = tested on: SK-MEL-28
# IGROV-1 = tested on: IGROV-1
# SR = tested on: SR
smiles,measurement,setting,value
C=CC[C@H](N=C(SC)SC)C(=O)N1C(=O)N(C)[C@@H](C)[C@H]1c1ccccc1,GI50,SF-539,36.4 µM (inactive)
same,GI50,NCI-H460,34.1 µM (inactive)
same,GI50,OVCAR-8,51.1 µM (inactive)
same,GI50,ACHN,49.4 µM (inactive)
same,GI50,U-251,40.8 µM (inactive)
same,GI50,EKVX,31.3 µM (inactive)
same,GI50,MCF7,34.8 µM (inactive)
same,GI50,UACC-257,29.2 µM (inactive)
same,GI50,HCT-15,49.8 µM
same,GI50,HCC 2998,27.9 µM (inactive)
same,GI50,UACC-62,35.1 µM (inactive)
same,GI50,COLO 205,28 µM (inactive)
same,GI50,SNB-75,36.4 µM (inactive)
same,GI50,A549,35.3 µM (inactive)
same,GI50,K562,29.6 µM (inactive)
same,GI50,OVCAR-5,54.6 µM (inactive)
same,GI50,SK-OV-3,75 µM (inactive)
same,GI50,CAKI-1,25.1 µM (inactive)
same,GI50,HL-60,34 µM (inactive)
same,GI50,SK-MEL-5,20 µM (inactive)
same,GI50,HT-29,38.6 µM (inactive)
same,GI50,SN12C,40.7 µM (inactive)
same,GI50,OVCAR-3,29.4 µM (inactive)
same,GI50,TK-10,44.2 µM (inactive)
same,GI50,OVCAR-4,29.9 µM (inactive)
same,GI50,NCI-H522,14.9 µM (inactive)
same,GI50,RXF 393,33.8 µM (inactive)
same,GI50,KM12,36.2 µM (inactive)
same,GI50,MDA-MB-231,> 100 µM (inactive)
same,GI50,Malme-3M,51.6 µM (inactive)
same,GI50,PC-3,33.7 µM (inactive)
same,GI50,LOX IMVI,72.8 µM (inactive)
same,GI50,MOLT-4,26.4 µM (inactive)
same,GI50,HOP-62,46.5 µM (inactive)
same,GI50,BT-549,34.6 µM (inactive)
same,GI50,CCRF-CEM,22.3 µM (inactive)
same,GI50,SW-620,30.1 µM (inactive)
same,GI50,NCI-H226,31.6 µM (inactive)
same,GI50,SK-MEL-2,30 µM (inactive)
same,GI50,Hs-578T,21.3 µM (inactive)
same,GI50,NCI/ADR-RES,29.5 µM (inactive)
same,GI50,T47D,40.5 µM (inactive)
same,GI50,DU-145,37.5 µM (inactive)
same,GI50,HOP-92,23.3 µM (inactive)
same,GI50,MDA-N,33.8 µM (inactive)
same,GI50,A498,56.8 µM (inactive)
same,GI50,SF-295,40.3 µM (inactive)
same,GI50,SNB-19,58.7 µM (inactive)
same,GI50,SF-268,26.5 µM (inactive)
same,GI50,M14,34.9 µM (inactive)
same,GI50,HCT-116,33 µM (inactive)
same,GI50,MDA-MB-435,33.8 µM (inactive)
same,GI50,UO-31,47.9 µM (inactive)
same,GI50,NCI-H23,39.3 µM (inactive)
same,GI50,786-0,46.6 µM (inactive)
same,GI50,SK-MEL-28,39.5 µM (inactive)
COC(=O)C1=C(C)C(=O)[C@]23C(CCCC[C@H]12)C(=O)[C@H](C(=O)OC)C3C (some centres undefined),GI50,SF-539,> 100 µM (inactive)
same,GI50,NCI-H460,> 100 µM (inactive)
same,GI50,OVCAR-8,> 100 µM (inactive)
same,GI50,ACHN,> 100 µM (inactive)
same,GI50,U-251,> 100 µM (inactive)
same,GI50,EKVX,> 100 µM (inactive)
same,GI50,MCF7,> 100 µM (inactive)
same,GI50,UACC-257,> 100 µM (inactive)
same,GI50,HCT-15,> 100 µM
same,GI50,HCC 2998,> 100 µM (inactive)
same,GI50,UACC-62,> 100 µM (inactive)
same,GI50,COLO 205,> 100 µM (inactive)
same,GI50,A549,> 100 µM (inactive)
same,GI50,K562,> 100 µM (inactive)
same,GI50,OVCAR-5,> 100 µM (inactive)
same,GI50,IGROV-1,> 100 µM (inactive)
same,GI50,SK-OV-3,> 100 µM (inactive)
same,GI50,CAKI-1,> 100 µM (inactive)
same,GI50,HL-60,> 100 µM (inactive)
same,GI50,HT-29,> 100 µM (inactive)
same,GI50,SR,50.9 µM (inactive)
same,GI50,SN12C,> 100 µM (inactive)
same,GI50,OVCAR-3,> 100 µM (inactive)
same,GI50,TK-10,> 100 µM (inactive)
same,GI50,OVCAR-4,> 100 µM (inactive)
same,GI50,NCI-H522,> 100 µM (inactive)
same,GI50,KM12,> 100 µM (inactive)
same,GI50,MDA-MB-231,> 100 µM (inactive)
same,GI50,Malme-3M,> 100 µM (inactive)
same,GI50,PC-3,> 100 µM (inactive)
same,GI50,LOX IMVI,> 100 µM (inactive)
same,GI50,MOLT-4,> 100 µM (inactive)
same,GI50,HOP-62,> 100 µM (inactive)
same,GI50,BT-549,> 100 µM (inactive)
same,GI50,CCRF-CEM,> 100 µM (inactive)
same,GI50,SW-620,> 100 µM (inactive)
same,GI50,NCI-H226,> 100 µM (inactive)
same,GI50,Hs-578T,> 100 µM (inactive)
same,GI50,NCI/ADR-RES,> 100 µM (inactive)
same,GI50,T47D,> 100 µM (inactive)
same,GI50,DU-145,> 100 µM (inactive)
same,GI50,HOP-92,> 100 µM (inactive)
same,GI50,MDA-N,> 100 µM (inactive)
same,GI50,SF-295,> 100 µM (inactive)
same,GI50,SNB-19,> 100 µM (inactive)
same,GI50,SF-268,> 100 µM (inactive)
same,GI50,M14,> 100 µM (inactive)
same,GI50,HCT-116,> 100 µM (inactive)
same,GI50,MDA-MB-435,> 100 µM (inactive)
same,GI50,UO-31,> 100 µM (inactive)
same,GI50,NCI-H23,> 100 µM (inactive)
same,GI50,786-0,> 100 µM (inactive)
same,GI50,SK-MEL-28,> 100 µM (inactive)
